The values below come from ChEMBL document CHEMBL4420075, “Seriniquinones, melanoma-specific anticancer agents” (2016).

Activity calls are given as the source filed them. The rule behind the calls is not given here.

The subject of series [1] is HCT-116. Kind of series: Induction of apoptosis in human HCT116 cells assessed as induction of caspase-3 cleavage at 3 to 30 uM incubated for 24 hrs by Western blot analysis. Type of series: functional, cell-based. Background: A western blot detects proteins with antibodies after separation by electrophoresis.
Series [2] in a line: Drug accumulation in human MALME-3M cells assessed as sub-cellular localization at 30 uM incubated for 1 hr by DAPI staining based. The class given is ADME, cell-based.
Another series has as its target T1, Dermcidin (Homo sapiens) (UniProt P81605).
T1 sequence (whole entry): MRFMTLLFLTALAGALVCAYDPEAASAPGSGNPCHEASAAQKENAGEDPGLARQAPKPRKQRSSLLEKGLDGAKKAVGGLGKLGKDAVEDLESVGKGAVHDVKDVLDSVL
Kind of series: Covalent binding affinity to DCD-1L (unknown origin) at 50 uM incubated for 24 hrs by denatured SDS-PAGE gel electrophoresis.

The test system of the next series is PC-3. Kind of series: Induction of auto-phagocytosis in human PC3 cells at 30 uM incubated for 1 hr by time course imaging assay. Type of series: functional, cell-based.
Series [3] deals with HCT-116. Kind of series: Reduction in cyclin D1 protein expression in human HCT116 cells at 3 to 30 uM incubated for 24 hrs by Western blot analysis. The class given is functional, cell-based.
The nature of series [4]: Drug accumulation in human HCT116 cells assessed as sub-cellular localization at 5 uM incubated for 1 hr by DAPI staining based. The class given is ADME, cell-based. The note with it: hct-116, 1 h.
Series [5] can be described thus: Drug accumulation in human SF295 cells assessed as sub-cellular localization at 30 uM incubated for 1 hr by DAPI staining based. Type of series: ADME, cell-based. The note with it: sf-295, 1 h.
Series [6] concerns HCT-116. Kind of series: Reduction in cyclin D2 protein expression in human HCT116 cells at 3 to 30 uM incubated for 24 hrs by Western blot analysis. The class given is functional, cell-based.
The nature of series [7]: Drug accumulation in human HCT116 cells assessed as sub-cellular localization in endoplasmic reticulum measured up to 9 hrs by ER-tracker-blue based confocal microscopy. The class given is ADME, subcellular. Conditions: hct-116, 9 h.
In series [8] the test system is HCT-116. Kind of series: Induction of apoptosis in human HCT116 cells assessed as induction of caspase-9 cleavage at 3 to 30 uM incubated for 24 hrs by Western blot analysis. The class given is functional, cell-based.
Series [9] relates to HCT-116. Kind of series: Induction of DNA fragmentation in human HCT116 cells at 0.3 to 30 uM incubated for 24 hrs by FACS analysis. Type of series: functional, cell-based. Background: A flow cytometer gives signals particle by particle.
Series [10] concerns HCT-116. Kind of series: Induction of autophagy in human HCT116 cells assessed as increase in of LC3A-II level incubated for 24 hrs by Western blot analysis. Type of series: functional, cell-based.
In series [11] the test system is HCT-116. Kind of series: Induction of apoptosis in human HCT116 cells assessed as induction of PARP cleavage at 3 to 30 uM incubated for 24 hrs by Western blot analysis. The class given is functional, cell-based.
Series [12] is described as follows: Drug accumulation in human PC3 cells assessed as sub-cellular localization in endoplasmic reticulum at 30 uM incubated for 1 hr by time course imaging assay. Type of series: ADME, subcellular. The note with it: pc-3, 1 h.
Series [13] is described as follows: Drug accumulation in human PC3M cells assessed as sub-cellular localization at 30 uM incubated for 1 hr by DAPI staining based. The class given is ADME, cell-based. Conditions: pc-3m.
Series [14] in a line: Drug accumulation in human HCT8 cells assessed as sub-cellular localization at 30 uM incubated for 1 hr by DAPI staining based. Conditions: hct-8, 1 h. The class given is ADME, cell-based.
Series [15] has as its system HCT-116. Kind of series: Reduction in cyclin D3 protein expression in human HCT116 cells at 3 to 30 uM incubated for 24 hrs by Western blot analysis. Type of series: functional, cell-based.
The nature of series [16]: Drug accumulation in human MALME-3M cells assessed as sub-cellular localization in endoplasmic reticulum measured up to 9 hrs by ER-tracker-blue based confocal microscopy. Type of series: ADME, subcellular.
Series [17] relates to HCT-116. Kind of series: Induction of cell cycle arrest in human HCT116 cells assessed as accumulation at S phase at 0.3 to 30 uM incubated for 18 to 24 hrs by propidium iodide staining based assay. The class given is functional.
A short description of series [18]: Drug accumulation in human HCT116 cells assessed as sub-cellular localization in autophagosomes measured after 6 hrs by dansyl-cadaverine based confocal microscopy. Type of series: ADME, subcellular, Autophagosome. Conditions: hct-116, 6 h.
Series [19] is described as follows: Drug accumulation in human MALME-3M cells assessed as sub-cellular localization in autophagosomes measured after 6 hrs by dansyl-cadaverine based confocal microscopy. Type of series: ADME, subcellular, Autophagosome.
Series [20] relates to HCT-116. Kind of series: Induction of autophagy in human HCT116 cells assessed as increase in of LC3B-II level incubated for 24 hrs by Western blot analysis. The class given is functional, cell-based.
Series [21] deals with HCT-116. Kind of series: Induction of apoptosis in human HCT116 cells assessed as induction of caspase-7 cleavage at 3 to 30 uM incubated for 24 hrs by Western blot analysis. Type of series: functional, cell-based.

Consider `O=c1c2ccccc2c(=O)c2c1sc1c(=O)c3ccccc3c(=O)c12`, for which the outcome with HCT-116 [1], at Dermcidin (Homo sapiens), with PC-3, with HCT-116 [3], with HCT-116 [6] and in the series with HCT-116 [8] was Active. The result in the series on HCT-116 [11], in the series with HCT-116 [15] and in the series with HCT-116 [21] was Active. Further, the Drug uptake result in series [2], in series [4], in [5], in [7], in [12] and in series [13] was “Active” each time. Besides, the Drug uptake entry in series [14], in series [16], in series [18] and in series [19] was “Active” each time. Besides, the Activity result in the series with HCT-116 [9], in the series with HCT-116 [10], with HCT-116 [17] and in the series with HCT-116 [20] was “Dose-dependent effect” throughout.
